# Test results reported in patent US8519096B2, “Citrullinated peptides for diagnosing and prognosing rheumatoid arthritis” (Nestec S.A., priority 2009, dated 2013).
# Non-standard residues stand in square brackets, D forms with d. *: point of attachment. Biotin = O=C1N[C@H]2[C@H](CS[C@H]2CCCCC(=O)*)N1; Cit = NC(=O)NCCC[C@H](N)C(=O)O
# Tested on: IgG ACPAs
# Experiment: ACPA ELISA with anti-human IgG secondary antibody
# Assay type: binding
# Conditions: Example 7, FIGS. 20-27
# Protocol: The synthetic citrullnated peptides set forth in Example 6, which were designed from synovial proteins, were synthesized and evaluated for their ability to diagnose and/or prognose RA. […] The peptides were then tested for IgG ACPA dose-response in samples of synovial fluid taken from both healthy patients and patients with RA.
row,Substance,IgG ACPA positive response (strong/moderate)
1,"FBNT-5: synthetic citrullinated peptide derived from fibronectin, Table 8 (Biotin-RGVLTVSWE[Cit]STTPDITGY[Cit]ITTTPTNR-NH2; SMILES CC[C@H](C)[C@H](NC(=O)[C@H](CC(=O)O)NC(=O)[C@@H]1CCCN1C(=O)[C@@H](NC(=O)[C@@H](NC(=O)[C@H](CO)NC(=O)[C@H](CCCNC(N)=O)NC(=O)[C@H](CCC(=O)O)NC(=O)[C@H](Cc1c[nH]c2ccccc12)NC(=O)[C@H](CO)NC(=O)[C@@H](NC(=O)[C@@H](NC(=O)[C@H](CC(C)C)NC(=O)[C@@H](NC(=O)CNC(=O)[C@H](CCCNC(=N)N)NC(=O)CCCC[C@@H]1SC[C@@H]2NC(=O)N[C@@H]21)C(C)C)[C@@H](C)O)C(C)C)[C@@H](C)O)[C@@H](C)O)C(=O)N[C@H](C(=O)NCC(=O)N[C@@H](Cc1ccc(O)cc1)C(=O)N[C@@H](CCCNC(N)=O)C(=O)N[C@H](C(=O)N[C@H](C(=O)N[C@H](C(=O)N[C@H](C(=O)N1CCC[C@H]1C(=O)N[C@H](C(=O)N[C@@H](CC(N)=O)C(=O)N[C@@H](CCCNC(=N)N)C(N)=O)[C@@H](C)O)[C@@H](C)O)[C@@H](C)O)[C@@H](C)O)[C@@H](C)CC)[C@@H](C)O)",moderate
2,"Bip-3: synthetic citrullinated peptide derived from BiP, Table 8 (Biotin-GEDFSETLT[Cit]DLF[Cit]STMKPIVLVGGST[Cit]R-NH2; SMILES CC[C@H](C)[C@H](NC(=O)[C@@H]1CCCN1C(=O)[C@H](CCCCN)NC(=O)[C@H](CCSC)NC(=O)[C@@H](NC(=O)[C@H](CO)NC(=O)[C@H](CCCNC(N)=O)NC(=O)[C@H](Cc1ccccc1)NC(=O)[C@H](CC(C)C)NC(=O)[C@H](CC(=O)O)NC(=O)[C@H](CCCNC(N)=O)NC(=O)[C@@H](NC(=O)[C@H](CC(C)C)NC(=O)[C@@H](NC(=O)[C@H](CCC(=O)O)NC(=O)[C@H](CO)NC(=O)[C@H](Cc1ccccc1)NC(=O)[C@H](CC(=O)O)NC(=O)[C@H](CCC(=O)O)NC(=O)CNC(=O)CCCC[C@@H]1SC[C@@H]2NC(=O)N[C@@H]21)[C@@H](C)O)[C@@H](C)O)[C@@H](C)O)C(=O)N[C@H](C(=O)N[C@@H](CC(C)C)C(=O)N[C@H](C(=O)NCC(=O)NCC(=O)N[C@@H](CO)C(=O)N[C@H](C(=O)N[C@@H](CCCNC(N)=O)C(=O)N[C@@H](CCCNC(=N)N)C(N)=O)[C@@H](C)O)C(C)C)C(C)C)",moderate
3,"FBNT-7: synthetic citrullinated peptide derived from fibronectin, Table 8 (Biotin-GP[Cit]EDRVPHSPRED[Cit]VPHS[Cit]NSITLTNG-NH2; SMILES CC[C@H](C)[C@H](NC(=O)[C@H](CO)NC(=O)[C@H](CC(N)=O)NC(=O)[C@H](CCCNC(N)=O)NC(=O)[C@H](CO)NC(=O)[C@H](Cc1c[nH]cn1)NC(=O)[C@@H]1CCCN1C(=O)[C@@H](NC(=O)[C@H](CCCNC(N)=O)NC(=O)[C@H](CC(=O)O)NC(=O)[C@H](CCC(=O)O)NC(=O)[C@H](CCCNC(=N)N)NC(=O)[C@@H]1CCCN1C(=O)[C@H](CO)NC(=O)[C@H](Cc1c[nH]cn1)NC(=O)[C@@H]1CCCN1C(=O)[C@@H](NC(=O)[C@H](CCCNC(=N)N)NC(=O)[C@H](CC(=O)O)NC(=O)[C@H](CCC(=O)O)NC(=O)[C@H](CCCNC(N)=O)NC(=O)[C@@H]1CCCN1C(=O)CNC(=O)CCCC[C@@H]1SC[C@@H]2NC(=O)N[C@@H]21)C(C)C)C(C)C)C(=O)N[C@H](C(=O)N[C@@H](CC(C)C)C(=O)N[C@H](C(=O)N[C@@H](CC(N)=O)C(=O)NCC(N)=O)[C@@H](C)O)[C@@H](C)O)",moderate
4,"T10α1-1: synthetic citrullinated peptide derived from collagen (Coll.T10α1), Table 8 (Biotin-KAGQ[Cit]PSLSGDKILYN[Cit]QQ[Cit]TGIFTSQIR-NH2; SMILES CC[C@H](C)[C@H](NC(=O)CNC(=O)[C@@H](NC(=O)[C@H](CCCNC(N)=O)NC(=O)[C@H](CCC(N)=O)NC(=O)[C@H](CCC(N)=O)NC(=O)[C@H](CCCNC(N)=O)NC(=O)[C@H](CC(N)=O)NC(=O)[C@H](Cc1ccc(O)cc1)NC(=O)[C@H](CC(C)C)NC(=O)[C@@H](NC(=O)[C@H](CCCCN)NC(=O)[C@H](CC(=O)O)NC(=O)CNC(=O)[C@H](CO)NC(=O)[C@H](CC(C)C)NC(=O)[C@H](CO)NC(=O)[C@@H]1CCCN1C(=O)[C@H](CCCNC(N)=O)NC(=O)[C@H](CCC(N)=O)NC(=O)CNC(=O)[C@H](C)NC(=O)[C@H](CCCCN)NC(=O)CCCC[C@@H]1SC[C@@H]2NC(=O)N[C@@H]21)[C@@H](C)CC)[C@@H](C)O)C(=O)N[C@@H](Cc1ccccc1)C(=O)N[C@H](C(=O)N[C@@H](CO)C(=O)N[C@@H](CCC(N)=O)C(=O)N[C@H](C(=O)N[C@@H](CCCNC(=N)N)C(N)=O)[C@@H](C)CC)[C@@H](C)O)",moderate
5,"T11α2-4: synthetic citrullinated peptide derived from collagen (Coll.T11α2), Table 8 (Biotin-GH[Cit]AQRSPQQQPS[Cit]LHRPQNQE-NH2; SMILES CC(C)C[C@H](NC(=O)[C@H](CCCNC(N)=O)NC(=O)[C@H](CO)NC(=O)[C@@H]1CCCN1C(=O)[C@H](CCC(N)=O)NC(=O)[C@H](CCC(N)=O)NC(=O)[C@H](CCC(N)=O)NC(=O)[C@@H]1CCCN1C(=O)[C@H](CO)NC(=O)[C@H](CCCNC(=N)N)NC(=O)[C@H](CCC(N)=O)NC(=O)[C@H](C)NC(=O)[C@H](CCCNC(N)=O)NC(=O)[C@H](Cc1c[nH]cn1)NC(=O)CNC(=O)CCCC[C@@H]1SC[C@@H]2NC(=O)N[C@@H]21)C(=O)N[C@@H](Cc1c[nH]cn1)C(=O)N[C@@H](CCCNC(=N)N)C(=O)N1CCC[C@H]1C(=O)N[C@@H](CCC(N)=O)C(=O)N[C@@H](CC(N)=O)C(=O)N[C@@H](CCC(N)=O)C(=O)N[C@@H](CCC(=O)O)C(N)=O)",moderate
6,"PL-SCRB: synthetic citrullinated peptide derived from PL scramblase, Table 8 (Biotin-TL[Cit]IIDNMGQEVITLE[Cit]PLRSITLERPL[Cit]SS-NH2; SMILES CC[C@H](C)[C@H](NC(=O)[C@H](CO)NC(=O)[C@H](CCCNC(=N)N)NC(=O)[C@H](CC(C)C)NC(=O)[C@@H]1CCCN1C(=O)[C@H](CCCNC(N)=O)NC(=O)[C@H](CCC(=O)O)NC(=O)[C@H](CC(C)C)NC(=O)[C@@H](NC(=O)[C@@H](NC(=O)[C@@H](NC(=O)[C@H](CCC(=O)O)NC(=O)[C@H](CCC(N)=O)NC(=O)CNC(=O)[C@H](CCSC)NC(=O)[C@H](CC(N)=O)NC(=O)[C@H](CC(=O)O)NC(=O)[C@@H](NC(=O)[C@@H](NC(=O)[C@H](CCCNC(N)=O)NC(=O)[C@H](CC(C)C)NC(=O)[C@@H](NC(=O)CCCC[C@@H]1SC[C@@H]2NC(=O)N[C@@H]21)[C@@H](C)O)[C@@H](C)CC)[C@@H](C)CC)C(C)C)[C@@H](C)CC)[C@@H](C)O)C(=O)N[C@H](C(=O)N[C@@H](CC(C)C)C(=O)N[C@@H](CCC(=O)O)C(=O)N[C@@H](CCCNC(=N)N)C(=O)N1CCC[C@H]1C(=O)N[C@@H](CC(C)C)C(=O)N[C@@H](CCCNC(N)=O)C(=O)N[C@@H](CO)C(=O)N[C@@H](CO)C(N)=O)[C@@H](C)O)",moderate
7,"T11α2-1: synthetic citrullinated peptide derived from collagen (Coll.T11α2), Table 8 (Biotin-GISPADVAY[Cit]VARPAQLYRVA[Cit]PAQLSAPT[Cit]QR-NH2; SMILES CC[C@H](C)[C@H](NC(=O)CNC(=O)CCCC[C@@H]1SC[C@@H]2NC(=O)N[C@@H]21)C(=O)N[C@@H](CO)C(=O)N1CCC[C@H]1C(=O)N[C@@H](C)C(=O)N[C@@H](CC(=O)O)C(=O)N[C@H](C(=O)N[C@@H](C)C(=O)N[C@@H](Cc1ccc(O)cc1)C(=O)N[C@@H](CCCNC(N)=O)C(=O)N[C@H](C(=O)N[C@@H](C)C(=O)N[C@@H](CCCNC(=N)N)C(=O)N1CCC[C@H]1C(=O)N[C@@H](C)C(=O)N[C@@H](CCC(N)=O)C(=O)N[C@@H](CC(C)C)C(=O)N[C@@H](Cc1ccc(O)cc1)C(=O)N[C@@H](CCCNC(=N)N)C(=O)N[C@H](C(=O)N[C@@H](C)C(=O)N[C@@H](CCCNC(N)=O)C(=O)N1CCC[C@H]1C(=O)N[C@@H](C)C(=O)N[C@@H](CCC(N)=O)C(=O)N[C@@H](CC(C)C)C(=O)N[C@@H](CO)C(=O)N[C@@H](C)C(=O)N1CCC[C@H]1C(=O)N[C@H](C(=O)N[C@@H](CCCNC(N)=O)C(=O)N[C@@H](CCC(N)=O)C(=O)N[C@@H](CCCNC(=N)N)C(N)=O)[C@@H](C)O)C(C)C)C(C)C)C(C)C)",strong
8,"FIB-G1: synthetic citrullinated peptide derived from fibrin (gamma-chain), Table 8 (Biotin-GYVAT[Cit]DNSSILDE[Cit]FGSRILTHDSSI[Cit]YR-NH2; SMILES CC[C@H](C)[C@H](NC(=O)[C@H](CO)NC(=O)[C@H](CO)NC(=O)[C@H](CC(=O)O)NC(=O)[C@H](Cc1c[nH]cn1)NC(=O)[C@@H](NC(=O)[C@H](CC(C)C)NC(=O)[C@@H](NC(=O)[C@H](CCCNC(=N)N)NC(=O)[C@H](CO)NC(=O)CNC(=O)[C@H](Cc1ccccc1)NC(=O)[C@H](CCCNC(N)=O)NC(=O)[C@H](CCC(=O)O)NC(=O)[C@H](CC(=O)O)NC(=O)[C@H](CC(C)C)NC(=O)[C@@H](NC(=O)[C@H](CO)NC(=O)[C@H](CO)NC(=O)[C@H](CC(N)=O)NC(=O)[C@H](CC(=O)O)NC(=O)[C@H](CCCNC(N)=O)NC(=O)[C@@H](NC(=O)[C@H](C)NC(=O)[C@@H](NC(=O)[C@H](Cc1ccc(O)cc1)NC(=O)CNC(=O)CCCC[C@@H]1SC[C@@H]2NC(=O)N[C@@H]21)C(C)C)[C@@H](C)O)[C@@H](C)CC)[C@@H](C)CC)[C@@H](C)O)C(=O)N[C@@H](CCCNC(N)=O)C(=O)N[C@@H](Cc1ccc(O)cc1)C(=O)N[C@@H](CCCNC(=N)N)C(N)=O)",strong
